This note sets out measurements from PubChem BioAssay (NCI).

Test systems include HCC-2998 colon; HOP-92 NSCLC; HS 578T breast; K-562 leukemia; M14 melanoma; MALME-3M melanoma; OVCAR-8 ovarian; PC-3 prostate; SW-620 colon; T-47D breast.
Common to all, as to experiment: NCI-60 cell line screen, 48 h

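A five-concentration, 48-hour dose response in 96-well plates underlies each endpoint, interpolated linearly between surrounding concentrations. GI50 = concentration required for 50% inhibition of growth. TGI is the concentration that stops growth completely.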 Where only a bound is given, the exact number is not on record here.

Turning to `CCN1C(=O)N(c2ccccc2)C2NC(=S)N(/N=C/C=C/c3ccccc3)C21` (configuration not stated), the GI50 with HCC-2998 colon is 399 nM; in the assay with HOP-92 NSCLC it was 4660 nM; in the assay on HS 578T breast, 339 nM; in the assay on K-562 leukemia, 155 nM; in the assay with M14 melanoma, 239 nM; in the assay with MALME-3M melanoma, 2830 nM. Moreover, the GI50 is 0.429 µM in the assay on OVCAR-8 ovarian, 394 nM in the assay with PC-3 prostate, 380 nM in the assay with SW-620 colon and 405 nM in the assay on T-47D breast. Moreover, the TGI in the assay on HCC-2998 colon, with HOP-92 NSCLC, with HS 578T breast, in the assay on K-562 leukemia, with M14 melanoma and with MALME-3M melanoma was greater than 100 µM throughout. The TGI in the assay with OVCAR-8 ovarian, in the assay on PC-3 prostate, with SW-620 colon and in the assay on T-47D breast was greater than 100 µM in each case.
Consider `CCN1Cc2c(ccc(F)c2C#N)O[C@@H](C)CNC(=O)c2c(N)nn3ccc1nc23`, for which the GI50 with HCC-2998 colon is 5570 nM; in the assay with HOP-92 NSCLC, 479 nM; in the assay on HS 578T breast, 652 nM; in the assay with K-562 leukemia, 175 nM; in the assay on M14 melanoma it was 678 nM; in the assay with MALME-3M melanoma, 1150 nM. Moreover, the GI50 was 4.33 µM in the assay on OVCAR-8 ovarian, 1640 nM in the assay with PC-3 prostate, 3870 nM in the assay on SW-620 colon and 2780 nM in the assay with T-47D breast. The TGI was 20.7 µM in the assay with HCC-2998 colon; 3.65 µM in the assay with HOP-92 NSCLC; 4.71 µM in the assay with HS 578T breast; greater than 100 µM in the assay with K-562 leukemia; 11.1 µM in the assay with M14 melanoma; 7.4 µM with MALME-3M melanoma. Further, the TGI with OVCAR-8 ovarian was greater than 100 µM; with PC-3 prostate, 26.6 µM; in the assay with SW-620 colon, 80.2 µM; in the assay on T-47D breast, 56.3 µM.
Regarding `O=C1C=CC[C@H](/C=C/c2ccccc2)O1`, the GI50 with HCC-2998 colon was 642 nM; in the assay on HOP-92 NSCLC, 1190 nM; with HS 578T breast it was 3150 nM; with M14 melanoma it was 5850 nM; in the assay with MALME-3M melanoma, 18500 nM; in the assay on OVCAR-8 ovarian, 6.03 µM. Besides, the GI50 was 3370 nM in the assay on PC-3 prostate, 1390 nM in the assay with SW-620 colon and 6290 nM in the assay with T-47D breast. The TGI is 3.42 µM in the assay with HCC-2998 colon; 18.3 µM in the assay on HOP-92 NSCLC; 30.4 µM with HS 578T breast; greater than 100 µM in the assay on K-562 leukemia; 23.3 µM with M14 melanoma; greater than 100 µM in the assay with MALME-3M melanoma. Further, the TGI was greater than 100 µM in the assay with OVCAR-8 ovarian, 27.5 µM with PC-3 prostate, 16 µM with SW-620 colon and 37.7 µM with T-47D breast.
For `NC1=C(c2nc(-c3ccccc3)cs2)C(c2ccc(Br)cc2)c2c(c3ccccc3oc2=O)O1` (configuration not stated), the GI50 in the assay on HCC-2998 colon is 130 µg/mL; with HOP-92 NSCLC it was 38.4 µg/mL; with HS 578T breast, 30.4 µg/mL; in the assay on K-562 leukemia it was 77.1 µg/mL; in the assay on M14 melanoma it was 90.1 µg/mL; in the assay with MALME-3M melanoma, greater than 150 µg/mL. Moreover, the GI50 is 112 µg/mL in the assay with OVCAR-8 ovarian, greater than 150 µg/mL in the assay on PC-3 prostate, 73.9 µg/mL in the assay on SW-620 colon and 44.3 µg/mL in the assay with T-47D breast. The TGI was greater than 150 µg/mL in the assay on HCC-2998 colon; 102 µg/mL in the assay on HOP-92 NSCLC; 91.4 µg/mL in the assay with HS 578T breast; greater than 150 µg/mL with K-562 leukemia; greater than 150 µg/mL in the assay with M14 melanoma; greater than 150 µg/mL in the assay with MALME-3M melanoma. Moreover, the TGI in the assay on OVCAR-8 ovarian, in the assay with PC-3 prostate, with SW-620 colon and in the assay on T-47D breast was greater than 150 µg/mL throughout.
Consider `Nc1nc(N)c2c(n1)NC(c1ccc(F)cc1)C1CCc3ccccc3C1=N2` (configuration not stated), for which the GI50 in the assay on HCC-2998 colon was 2440 nM; with HOP-92 NSCLC, 1170 nM; in the assay with HS 578T breast, 10200 nM; with M14 melanoma it was 5510 nM; in the assay on MALME-3M melanoma, 2520 nM; in the assay on OVCAR-8 ovarian, 8.07 µM. In addition, the GI50 with PC-3 prostate was 2030 nM; in the assay with SW-620 colon, 4870 nM; with T-47D breast, 3860 nM. The TGI in the assay on HCC-2998 colon is 6.67 µM; in the assay with HOP-92 NSCLC, 6.59 µM; with HS 578T breast, 34.6 µM; in the assay with M14 melanoma it was 18.7 µM; in the assay on MALME-3M melanoma, 15 µM; in the assay with OVCAR-8 ovarian it was 27 µM. For the same molecule, the TGI is 9.31 µM in the assay on PC-3 prostate, 17.4 µM with SW-620 colon and 17.7 µM in the assay with T-47D breast.
`O=P(CCCCP(=O)(c1ccccc1)c1ccccc1)(c1ccccc1)c1ccccc1.[Cl][Sn]([Cl])([c]1ccccc1)[c]1ccccc1`: the GI50 in the assay on HCC-2998 colon is 2760 nM; in the assay with HOP-92 NSCLC, 1560 nM; with HS 578T breast, 4100 nM; in the assay on K-562 leukemia it was 444 nM; in the assay with M14 melanoma, 1770 nM; in the assay with MALME-3M melanoma, 1410 nM. Further, the GI50 in the assay on OVCAR-8 ovarian was 2.3 µM; with PC-3 prostate, 2290 nM; with SW-620 colon it was 696 nM; in the assay with T-47D breast it was 73 nM. Besides, the TGI in the assay with HCC-2998 colon was 10.1 µM; with HOP-92 NSCLC, 3.18 µM; with HS 578T breast it was greater than 50.6 µM; in the assay on K-562 leukemia, greater than 100 µM; in the assay with M14 melanoma it was 3.81 µM; in the assay with MALME-3M melanoma it was 3.1 µM. Further, the TGI with OVCAR-8 ovarian is 6.28 µM; in the assay with PC-3 prostate, 6.04 µM; with SW-620 colon, 5.59 µM; in the assay on T-47D breast, 0.415 µM.
Consider `COc1ccc(/C=C(\C#N)n2nnc3ccccc32)cc1`, for which the GI50 in the assay on HCC-2998 colon was 458 nM; in the assay with HOP-92 NSCLC it was 272 nM; in the assay with HS 578T breast it was 396 nM; in the assay with K-562 leukemia, 43 nM; in the assay on M14 melanoma, 71 nM; with MALME-3M melanoma, 418 nM. Besides, the GI50 is 0.416 µM in the assay with OVCAR-8 ovarian, 293 nM in the assay on PC-3 prostate, 60.3 nM in the assay with SW-620 colon and 86.5 nM with T-47D breast. For the same molecule, the TGI is 7.11 µM with HCC-2998 colon; 3.47 µM with HOP-92 NSCLC; greater than 100 µM in the assay with HS 578T breast; greater than 100 µM in the assay on K-562 leukemia; 2.02 µM in the assay on M14 melanoma; greater than 71.2 µM in the assay with MALME-3M melanoma. Further, the TGI in the assay with OVCAR-8 ovarian is greater than 100 µM; in the assay with PC-3 prostate, greater than 60 µM; with SW-620 colon it was greater than 100 µM; with T-47D breast, 72.9 µM.
